Data taken from patent US8785488B2 (Exelixis Patent Company LLC, priority 2009, dated 2014).
Counter-ions that a name gives are not always drawn. Like-named read-outs stand apart in the source and are kept apart here.

Molecular target: T1, human TGR5 (h-TGR5) (Homo sapiens, UniProt Q8TDU6)
T1 construct: expressed in transfected cells
T1 sequence (Q8TDU6 1-330): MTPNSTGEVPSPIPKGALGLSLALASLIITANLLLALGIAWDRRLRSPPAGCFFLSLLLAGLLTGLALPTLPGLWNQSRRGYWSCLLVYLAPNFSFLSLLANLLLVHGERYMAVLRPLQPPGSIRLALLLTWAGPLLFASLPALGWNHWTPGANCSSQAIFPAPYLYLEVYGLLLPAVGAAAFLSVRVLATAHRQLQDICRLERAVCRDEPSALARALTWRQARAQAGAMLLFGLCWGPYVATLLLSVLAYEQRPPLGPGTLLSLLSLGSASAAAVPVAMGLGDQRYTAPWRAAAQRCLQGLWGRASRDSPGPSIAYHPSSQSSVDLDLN
Assay: TGR5/CRE-Luciferiase Assay (HEK 293 hTGR5/CRE-Luc cells)
Type: cell-based
Method in brief: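 HEK293 cells stably carrying hTGR5 and a CRE-luciferase reporter were exposed to serially diluted compounds (diluted in DMEM with 5% DMSO) for 6 h. Cells were then lysed in luciferase buffer, luminescence was read, and EC50 values were derived from dose-response curves.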

[1] = h-TGR5 CRE-Luc EC50, Table 1, read-out: CRE-Luc (EC50)
[2] = HEK 293 hTGR5/CRE-Luc cells, 6 hours incubation, luciferase activity, Table 2, read-out: h-TGR5CRE-Luc EC50 (CRE-Luc)

Row | Structure (SMILES) | EC50 [1] [µM] | EC50 [2] [µM]
1 | CC(C)(O)c1cccc(F)c1CSc1ncc(C(C)(C)c2ccc(Cl)c(Cl)c2)n1-c1ccc(F)cc1 [2-{2-[({5-[1-(3,4-dichlorophenyl)-1-methylethyl]-1-(4-fluorophenyl)-1H-imidazol-2-yl}thio)methyl]-3-fluorophenyl}propan-2-ol] | 0.1 to 1 | 
2 | CC(C)(c1ccc(Cl)c(Cl)c1)c1cnc(SCc2ccc(F)c(NC(=N)N)c2)n1-c1ccc(F)cc1 [1-{5-[({5-[1-(3,4-dichlorophenyl)-1-methylethyl]-1-(4-fluorophenyl)-1H-imidazol-2-yl}thio)methyl]-2-fluorophenyl}guanidine] | 0.1 to 1 | 
3 | COc1ccc(C(C)(C)c2cnc(CNCc3c(F)cccc3Cl)n2-c2ccc(F)cc2)cc1OC [1-[5-{1-[3,4-bis(methyloxy)phenyl]-1-methylethyl}-1-(4-fluorophenyl)-1H-imidazol-2-yl]-N-[(2-chloro-6-fluorophenyl)methyl]methanamine] | < 0.1 | 
4 | CC(C)(O)COc1cc(F)ccc1CSc1ncc(C(C)(C)c2ccc(Cl)c(Cl)c2)n1-c1ccc(F)cc1 [1-({2-[({5-[1-(3,4-dichlorophenyl)-1-methylethyl]-1-(4-fluorophenyl)-1H-imidazol-2-yl}thio)methyl]-5-fluorophenyl}oxy)-2-methylpropan-2-ol] | 0.1 to 1 | 
5 | CC(C)(c1ccc2c(c1)OCO2)c1cnc(SCc2c(F)cccc2Cl)n1-c1ccc(F)cc1 [5-[1-(1,3-benzodioxol-5-yl)-1-methylethyl]-2-{[(2-chloro-6-fluorophenyl)methyl]thio}-1-(4-fluorophenyl)-1H-imidazole] | < 0.1 | 
6 | CC(C)(c1ccc(Cl)c(Cl)c1)c1cnc(SCc2ccc(OCCCO)c(C#N)c2)n1-c1ccc(F)cc1 [5-[({5-[1-(3,4-dichlorophenyl)-1-methylethyl]-1-(4-fluorophenyl)-1H-imidazol-2-yl}thio)methyl]-2-[(3-hydroxypropyl)oxy]benzonitrile] | 0.1 to 1 | 
7 | CC(C)(c1ccc(Cl)c(OCCCO)c1)c1cnc(SCc2c(F)cccc2Cl)n1-c1ccc(F)cc1 [3-[(2-chloro-5-{1-[2-{[(2-chloro-6-fluorophenyl)methyl]thio}-1-(4-fluorophenyl)-1H-imidazol-5-yl]-1-methylethyl}phenyl)oxy]propan-1-ol] | 0.1 to 1 | 
8 | CC(C)(c1ccc(Cl)c(Cl)c1)c1cnc(C2CCN(C(=O)NN3CCCC3)CC2)n1-c1ccc(F)cc1 [4-{5-[1-(3,4-dichlorophenyl)-1-methylethyl]-1-(4-fluorophenyl)-1H-imidazol-2-yl}-N-pyrrolidin-1-ylpiperidine-1-carboxamide] | 1 to 10 | 
9 | CC(C)(c1ccc(Cl)c(Cl)c1)c1cnc(S(=O)(=O)Cc2c(F)cccc2Cl)n1-c1ccc(F)cc1F [2-{[(2-chloro-6-fluorophenyl)methyl]sulfonyl}-5-[1-(3,4-dichlorophenyl)-1-methylethyl]-1-(2,4-difluorophenyl)-1H-imidazole] | 0.1 to 1 | 
10 | COc1ccc(Cc2nnc(SCc3ccc(F)cc3Cl)n2-c2ccc(F)cc2)cc1 [Example 28, hydrochloride] |  | 1 to 10
11 | COc1ccc(C(C)(C)c2cnc(CNCc3ccc(Cl)c(F)c3)n2-c2ccc(F)cc2)cc1OC [1-[5-{1-[3,4-bis(methyloxy)phenyl]-1-methylethyl}-1-(4-fluorophenyl)-1H-imidazol-2-yl]-N-[(4-chloro-3-fluorophenyl)methyl]methanamine] | < 0.1 | 
12 | CC(C)(c1ccc(Cl)c(Cl)c1)c1cnc(SCC2CCN(c3nnn[nH]3)CC2)n1-c1ccc(F)c(F)c1 [4-[({5-[1-(3,4-dichlorophenyl)-1-methylethyl]-1-(3,4-difluorophenyl)-1H-imidazol-2-yl}thio)methyl]-1-(1H-tetrazol-5-yl)piperidine] | < 0.1 | 
13 | COc1c(Cl)cc(C(C)(C)c2cnc(SCc3ccc(F)cc3Cl)n2-c2ccc(F)cc2)cc1Cl | < 0.1 | 
14 | CC(C)(c1ccc(OCCO)cc1)c1cnc(SCc2c(F)cccc2Cl)n1-c1ccc(F)cc1 [2-[(4-{1-[2-{[(2-chloro-6-fluorophenyl)methyl]thio}-1-(4-fluorophenyl)-1H-imidazol-5-yl]-1-methylethyl}phenyl)oxy]ethanol] | 0.1 to 1 | 
15 | CC(C)(c1ccc(S(C)(=O)=O)cc1)c1cnc(SCc2c(F)cc(C(=O)O)cc2F)n1-c1ccc(F)c(F)c1 [4-({[1-(3,4-difluorophenyl)-5-{1-methyl-1-[4-(methylsulfonyl)phenyl]ethyl}-1H-imidazol-2-yl]thio}methyl)-3,5-difluorobenzoic acid] | 1 to 10 | 

Results, then the compound that gave them:

Row | EC50 [1] [µM] | EC50 [2] [µM] | Structure (SMILES)
16 | 0.1 to 1 |  | CC(C)(c1ccc(Cl)c(Cl)c1)c1cnc(S(=O)(=O)Cc2c(Cl)cccc2Cl)n1-c1ccc(F)cc1 [5-[1-(3,4-dichlorophenyl)-1-methylethyl]-2-{[(2,6-dichlorophenyl)methyl]sulfonyl}-1-(4-fluorophenyl)-1H-imidazole]
17 | 0.1 to 1 |  | CC(C)(c1ccc(Cl)c(Cl)c1)c1cnc(SCC2CCCN(S(C)(=O)=O)C2)n1-c1ccc(F)cc1 (centres unmarked) [3-[({5-[1-(3,4-dichlorophenyl)-1-methylethyl]-1-(4-fluorophenyl)-1H-imidazol-2-yl}thio)methyl]-1-(methylsulfonyl)piperidine]
18 | < 0.1 |  | COc1ccc(C(C)(C)c2cnc(SCc3ccc(F)c(Cl)c3)n2-c2ccc(F)cc2)cc1OC [5-{1-[3,4-bis(methyloxy)phenyl]-1-methylethyl}-2-{[(3-chloro-4-fluorophenyl)methyl]thio}-1-(4-fluorophenyl)-1H-imidazole]
19 | 0.1 to 1 |  | COc1ccc(C(C)(C)c2cnc(C(=O)NCc3ccc(Cl)c(F)c3)n2-c2ccc(F)cc2)cc1OC [5-{1-[3,4-bis(methyloxy)phenyl]-1-methylethyl}-N-[(4-chloro-3-fluorophenyl)methyl]-1-(4-fluorophenyl)-1H-imidazole-2-carboxamide]
20 | 1 to 10 |  | CC(C)(c1ccc(Cl)c(Cl)c1)c1cnc(S(=O)(=O)Cc2ccc(F)cc2Cl)n1-c1ccc(F)cc1 [2-{[(2-chloro-4-fluorophenyl)methyl]sulfonyl}-5-[1-(3,4-dichlorophenyl)-1-methylethyl]-1-(4-fluorophenyl)-1H-imidazole]
21 | 1 to 10 |  | COc1ccc(C(C)(C)c2cnc(C(=O)Nc3ccc(F)c(Cl)c3)n2-c2ccc(F)cc2)cc1OC [5-{1-[3,4-bis(methyloxy)phenyl]-1-methylethyl}-N-(3-chloro-4-fluorophenyl)-1-(4-fluorophenyl)-1H-imidazole-2-carboxamide]
22 | 1 to 10 |  | CC(C)(c1ccc(Cl)c(Cl)c1)c1cnc(OCC2CCN(c3nnn[nH]3)CC2)n1-c1ccc(F)cc1 [4-[({5-[1-(3,4-dichlorophenyl)-1-methylethyl]-1-(4-fluorophenyl)-1H-imidazol-2-yl}oxy)methyl]-1-(1H-tetrazol-5-yl)piperidine]
23 | 0.1 to 1 |  | COC(=O)c1cc(F)c(OCc2ncc(C(C)(C)c3ccc(Cl)c(Cl)c3)n2-c2ccc(F)cc2)c(Cl)c1 [methyl 3-chloro-4-[({5-[1-(3,4-dichlorophenyl)-1-methylethyl]-1-(4-fluorophenyl)-1H-imidazol-2-yl}methyl)oxy]-5-fluorobenzoate]
24 | 0.1 to 1 |  | COc1cc(F)ccc1-n1c(C(C)(C)c2ccc(Cl)c(Cl)c2)cnc1SCc1ccc(F)cc1Cl [2-{[(2-chloro-4-fluorophenyl)methyl]thio}-5-[1-(3,4-dichlorophenyl)-1-methylethyl]-1-[4-fluoro-2-(methyloxy)phenyl]-1H-imidazole]
25 | 1 to 10 |  | COc1cc(C(C)(C)c2cnc(SCC3CCN(CCO)CC3)n2-c2ccc(F)cc2)ccc1Cl [2-[4-({[5-{1-[4-chloro-3-(methyloxy)phenyl]-1-methylethyl}-1-(4-fluorophenyl)-1H-imidazol-2-yl]thio}methyl)piperidin-1-yl]ethanol]
26 | 0.1 to 1 |  | COCCNC(=O)c1ccc(CSc2ncc(C(C)(C)c3ccc(Cl)c(Cl)c3)n2-c2ccc(F)cc2)c(F)c1 [4-[({5-[1-(3,4-dichlorophenyl)-1-methylethyl]-1-(4-fluorophenyl)-1H-imidazol-2-yl}thio)methyl]-3-fluoro-N-[2-(methyloxy)ethyl]benzamide]
27 | 0.1 to 1 |  | CC(C)(c1ccc(Cl)c(Cl)c1)c1cnc(SCc2c(F)cccc2Cl)n1-c1ccc(Cl)c(Cl)c1 [2-{[(2-chloro-6-fluorophenyl)methyl]thio)-1-(3,4-dichlorophenyl)-5-[1-(3,4-dichlorophenyl)-1-methylethyl]-1H-imidazole]
28 | 1 to 10 |  | COc1ccc(C(C)(C)c2cnc(C(=O)Nc3ccc(F)cc3Cl)n2-c2ccc(F)cc2)cc1OC [5-{1-[3,4-bis(methyloxy)phenyl]-1-methylethyl}-N-(2-chloro-4-fluorophenyl)-1-(4-fluorophenyl)-1H-imidazole-2-carboxamide]
29 | 0.1 to 1 |  | COc1ccc(C(C)(C)c2cnc(SCc3c(F)cccc3C(=O)O)n2-c2ccc(F)cc2)cc1OC [2-({[5-{1-[3,4-bis(methyloxy)phenyl]-1-methylethyl}-1-(4-fluorophenyl)-1H-imidazol-2-yl]thio}methyl)-3-fluorobenzoic acid]
30 |  | 1 to 10 | Fc1ccc(-n2c(Cc3ccc(Cl)c(Cl)c3)nnc2SCc2ccc(F)cc2C(F)(F)F)cc1 [Example 33]
31 | 1 to 10 |  | COc1ccc(-c2cnc(SCc3ccc(F)cc3Cl)n2-c2ccc(F)cc2)cc1OC [5-[3,4-bis(methyloxy)phenyl]-2-{[(2-chloro-4-fluorophenyl)methyl]thio}-1-(4-fluorophenyl)-1H-imidazole]
32 | 0.1 to 1 |  | CC(C)(c1ccc(Cl)c(Cl)c1)c1cnc(SCc2c(F)cccc2C(=O)O)n1-c1ccc(F)cc1 [2-[({5-[1-(3,4-dichlorophenyl)-1-methylethyl]-1-(4-fluorophenyl)-1H-imidazol-2-yl}thio)methyl]-3-fluorobenzoic acid]
